Assay results taken from the kinase profiling compilation of Christmann-Franck et al. (2016).

What was measured:
Assay in all cases: radiometric filter-binding kinase assay, Kinaseprofiler
SYK (human) = SYK (human) (UniProt P43405); settings: ATP 15 µM
PRKX (human) = PRKX (human) (UniProt P51817); settings: ATP 200 µM
MAPKAPK3 (human) = MAPKAPK3 (human) (UniProt Q16644); settings: ATP 90 µM
PIM3 (human) = PIM3 (human) (UniProt Q86V86); settings: ATP 155 µM
GRK7 (human) = GRK7 (human) (UniProt Q8WTQ7); settings: ATP 15 µM
MAP2K7 (human) = MAP2K7 (human) (UniProt O14733); settings: ATP 10 µM
Chain of MAP2K7 (human) (O14733 whole entry, looked up): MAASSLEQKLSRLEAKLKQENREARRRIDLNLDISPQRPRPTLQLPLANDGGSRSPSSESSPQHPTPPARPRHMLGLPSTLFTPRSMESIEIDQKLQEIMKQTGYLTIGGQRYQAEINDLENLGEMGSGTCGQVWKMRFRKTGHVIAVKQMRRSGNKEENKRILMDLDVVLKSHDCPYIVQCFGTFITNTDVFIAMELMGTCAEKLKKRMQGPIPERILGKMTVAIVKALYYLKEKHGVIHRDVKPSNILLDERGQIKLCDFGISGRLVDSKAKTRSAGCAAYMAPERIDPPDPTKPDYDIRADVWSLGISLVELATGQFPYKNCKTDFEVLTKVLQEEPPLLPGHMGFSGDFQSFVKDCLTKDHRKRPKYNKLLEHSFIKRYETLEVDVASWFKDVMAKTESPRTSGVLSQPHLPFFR

MUSK (human) = MUSK (human) (UniProt O15146); settings: ATP 155 µM
Chain of MUSK (human) (O15146 whole entry, looked up): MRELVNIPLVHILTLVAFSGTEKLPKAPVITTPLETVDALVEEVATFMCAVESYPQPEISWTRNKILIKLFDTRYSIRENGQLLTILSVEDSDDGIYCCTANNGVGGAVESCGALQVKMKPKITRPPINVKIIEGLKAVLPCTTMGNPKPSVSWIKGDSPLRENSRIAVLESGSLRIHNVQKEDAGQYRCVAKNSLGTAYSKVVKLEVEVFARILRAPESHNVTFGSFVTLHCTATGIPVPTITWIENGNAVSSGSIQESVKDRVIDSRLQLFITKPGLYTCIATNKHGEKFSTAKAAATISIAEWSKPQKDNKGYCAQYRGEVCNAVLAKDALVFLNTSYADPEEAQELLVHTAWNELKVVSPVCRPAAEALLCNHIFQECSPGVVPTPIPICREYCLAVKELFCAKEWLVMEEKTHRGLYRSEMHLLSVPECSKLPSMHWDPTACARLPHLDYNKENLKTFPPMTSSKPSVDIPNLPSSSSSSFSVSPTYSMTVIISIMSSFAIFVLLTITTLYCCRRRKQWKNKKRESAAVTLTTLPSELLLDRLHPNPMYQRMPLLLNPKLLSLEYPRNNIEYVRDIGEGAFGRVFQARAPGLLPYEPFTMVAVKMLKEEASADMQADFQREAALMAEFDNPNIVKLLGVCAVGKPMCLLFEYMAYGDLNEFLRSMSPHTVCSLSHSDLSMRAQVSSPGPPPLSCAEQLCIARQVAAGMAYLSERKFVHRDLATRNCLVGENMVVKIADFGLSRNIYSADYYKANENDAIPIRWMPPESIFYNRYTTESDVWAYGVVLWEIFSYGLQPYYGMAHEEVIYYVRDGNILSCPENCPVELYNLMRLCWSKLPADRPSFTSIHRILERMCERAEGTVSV

BRSK1 (human) = BRSK1 (human) (UniProt Q8TDC3); settings: ATP 200 µM
GRK5 (human) = GRK5 (human) (UniProt P34947); settings: ATP 15 µM
CSNK2A2 (human) = CSNK2A2 (human) (UniProt P19784); settings: ATP 10 µM
Chain of CSNK2A2 (human) (P19784 whole entry, looked up): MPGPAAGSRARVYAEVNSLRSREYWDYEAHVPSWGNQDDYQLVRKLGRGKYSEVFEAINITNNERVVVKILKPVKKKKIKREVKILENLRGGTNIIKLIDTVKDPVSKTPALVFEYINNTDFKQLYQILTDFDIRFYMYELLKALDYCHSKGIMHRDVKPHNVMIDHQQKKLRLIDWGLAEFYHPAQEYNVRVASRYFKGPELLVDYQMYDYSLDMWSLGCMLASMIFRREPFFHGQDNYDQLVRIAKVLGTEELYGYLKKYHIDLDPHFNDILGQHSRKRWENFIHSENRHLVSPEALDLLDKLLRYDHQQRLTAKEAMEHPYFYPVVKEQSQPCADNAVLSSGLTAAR

TSSK2 (human) = TSSK2 (human) (UniProt Q96PF2); settings: ATP 15 µM
EPHA8 (human) = EPHA8 (human) (UniProt P29322); settings: ATP 200 µM
Chain of EPHA8 (human) (P29322 whole entry, looked up): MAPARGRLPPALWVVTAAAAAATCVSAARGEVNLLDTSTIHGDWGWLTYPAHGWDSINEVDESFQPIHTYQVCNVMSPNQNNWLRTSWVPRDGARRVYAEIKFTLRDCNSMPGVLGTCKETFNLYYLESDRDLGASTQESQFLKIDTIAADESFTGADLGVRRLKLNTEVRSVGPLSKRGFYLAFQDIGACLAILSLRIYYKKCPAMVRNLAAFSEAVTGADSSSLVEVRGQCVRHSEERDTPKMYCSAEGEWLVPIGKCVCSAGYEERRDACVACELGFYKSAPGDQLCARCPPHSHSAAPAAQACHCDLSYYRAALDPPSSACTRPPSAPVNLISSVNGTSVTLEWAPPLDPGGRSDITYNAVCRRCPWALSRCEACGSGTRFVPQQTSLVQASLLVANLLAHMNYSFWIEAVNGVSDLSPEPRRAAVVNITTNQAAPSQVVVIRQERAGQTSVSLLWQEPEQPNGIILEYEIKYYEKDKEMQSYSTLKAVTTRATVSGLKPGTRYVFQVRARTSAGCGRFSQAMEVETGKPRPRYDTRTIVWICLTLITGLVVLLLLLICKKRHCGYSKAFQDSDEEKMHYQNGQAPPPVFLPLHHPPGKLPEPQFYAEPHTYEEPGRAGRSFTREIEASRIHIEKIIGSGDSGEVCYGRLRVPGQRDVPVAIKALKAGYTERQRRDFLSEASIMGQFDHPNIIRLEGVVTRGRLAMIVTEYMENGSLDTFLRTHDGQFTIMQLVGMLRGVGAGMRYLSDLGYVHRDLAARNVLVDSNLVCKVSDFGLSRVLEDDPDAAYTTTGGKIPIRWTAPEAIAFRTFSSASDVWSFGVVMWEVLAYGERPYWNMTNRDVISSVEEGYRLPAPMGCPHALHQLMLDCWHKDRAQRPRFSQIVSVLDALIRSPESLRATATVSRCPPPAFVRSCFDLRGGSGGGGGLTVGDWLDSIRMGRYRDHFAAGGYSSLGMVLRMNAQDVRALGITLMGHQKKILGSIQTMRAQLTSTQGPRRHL

CDK1 CCNB1 (human) = CDK1 CCNB1 (human) (UniProt P06493+P14635); settings: ATP 45 µM
BMX (human) = BMX (human) (UniProt P51813); settings: ATP 45 µM
EPHA7 (human) = EPHA7 (human) (UniProt Q15375); settings: ATP 90 µM
NEK11 (human) = NEK11 (human) (UniProt Q8NG66); settings: ATP 200 µM
Chain of NEK11 (human) (Q8NG66 whole entry, looked up): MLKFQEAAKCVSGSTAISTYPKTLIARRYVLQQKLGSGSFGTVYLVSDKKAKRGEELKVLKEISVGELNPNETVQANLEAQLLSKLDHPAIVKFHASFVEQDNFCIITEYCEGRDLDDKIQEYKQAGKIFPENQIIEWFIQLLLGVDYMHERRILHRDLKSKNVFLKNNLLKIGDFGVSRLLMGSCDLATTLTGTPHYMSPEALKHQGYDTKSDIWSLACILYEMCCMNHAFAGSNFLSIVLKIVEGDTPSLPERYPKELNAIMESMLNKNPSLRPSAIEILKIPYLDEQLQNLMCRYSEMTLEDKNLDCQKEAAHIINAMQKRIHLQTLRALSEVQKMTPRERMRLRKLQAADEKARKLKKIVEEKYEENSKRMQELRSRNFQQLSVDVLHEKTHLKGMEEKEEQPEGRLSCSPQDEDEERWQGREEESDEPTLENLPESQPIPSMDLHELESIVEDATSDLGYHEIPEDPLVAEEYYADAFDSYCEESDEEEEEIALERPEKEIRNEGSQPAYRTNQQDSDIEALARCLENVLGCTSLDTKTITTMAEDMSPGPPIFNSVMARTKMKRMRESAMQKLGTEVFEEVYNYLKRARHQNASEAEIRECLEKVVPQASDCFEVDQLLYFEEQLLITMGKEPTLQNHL

MKNK2 (human) = MKNK2 (human) (UniProt Q9HBH9); settings: ATP 120 µM
PLK2 (human) = PLK2 (human) (UniProt Q9NYY3); settings: ATP 120 µM
FRK (human) = FRK (human) (UniProt P42685); settings: ATP 155 µM
WNK3 (human) = WNK3 (human) (UniProt Q9BYP7); settings: ATP 200 µM
PAK3 (human) = PAK3 (human) (UniProt O75914); settings: ATP 120 µM
PRKACA (human) = PRKACA (human) (UniProt P17612); settings: ATP 10 µM
MELK (human) = MELK (human) (UniProt Q14680); settings: ATP 45 µM
SIK1 (human) = SIK1 (human) (UniProt P57059); settings: ATP 45 µM
MAP3K9 (human) = MAP3K9 (human) (UniProt P80192); settings: ATP 45 µM
DAPK2 (human) = DAPK2 (human) (UniProt Q9UIK4); settings: ATP 10 µM
SRPK2 (human) = SRPK2 (human) (UniProt P78362); settings: ATP 10 µM
FLT3 (human) = FLT3 (human) (UniProt P36888); settings: ATP 200 µM
CDK5 CDK5R1 p25 (human) = CDK5 CDK5R1 p25 (human) (UniProt Q00535+Q15078); settings: ATP 15 µM
DCLK2 (human) = DCLK2 (human) (UniProt Q8N568); settings: ATP 90 µM
MAP2K1 (human) = MAP2K1 (human) (UniProt Q02750); settings: ATP 10 µM
Chain of MAP2K1 (human) (Q02750 whole entry, looked up): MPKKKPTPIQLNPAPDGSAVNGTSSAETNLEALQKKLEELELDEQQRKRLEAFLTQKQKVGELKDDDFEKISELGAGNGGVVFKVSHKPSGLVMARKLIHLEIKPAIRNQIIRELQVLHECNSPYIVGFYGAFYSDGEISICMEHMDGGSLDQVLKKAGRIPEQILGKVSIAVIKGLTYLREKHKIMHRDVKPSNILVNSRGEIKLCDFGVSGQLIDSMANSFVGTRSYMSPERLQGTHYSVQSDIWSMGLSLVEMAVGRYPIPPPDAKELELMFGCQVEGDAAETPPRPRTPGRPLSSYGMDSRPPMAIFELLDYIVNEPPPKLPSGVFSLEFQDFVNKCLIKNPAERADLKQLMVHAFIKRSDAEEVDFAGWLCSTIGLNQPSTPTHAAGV

MAP3K5 (human) = MAP3K5 (human) (UniProt Q99683); settings: ATP 200 µM
Chain of MAP3K5 (human) (Q99683 whole entry, looked up): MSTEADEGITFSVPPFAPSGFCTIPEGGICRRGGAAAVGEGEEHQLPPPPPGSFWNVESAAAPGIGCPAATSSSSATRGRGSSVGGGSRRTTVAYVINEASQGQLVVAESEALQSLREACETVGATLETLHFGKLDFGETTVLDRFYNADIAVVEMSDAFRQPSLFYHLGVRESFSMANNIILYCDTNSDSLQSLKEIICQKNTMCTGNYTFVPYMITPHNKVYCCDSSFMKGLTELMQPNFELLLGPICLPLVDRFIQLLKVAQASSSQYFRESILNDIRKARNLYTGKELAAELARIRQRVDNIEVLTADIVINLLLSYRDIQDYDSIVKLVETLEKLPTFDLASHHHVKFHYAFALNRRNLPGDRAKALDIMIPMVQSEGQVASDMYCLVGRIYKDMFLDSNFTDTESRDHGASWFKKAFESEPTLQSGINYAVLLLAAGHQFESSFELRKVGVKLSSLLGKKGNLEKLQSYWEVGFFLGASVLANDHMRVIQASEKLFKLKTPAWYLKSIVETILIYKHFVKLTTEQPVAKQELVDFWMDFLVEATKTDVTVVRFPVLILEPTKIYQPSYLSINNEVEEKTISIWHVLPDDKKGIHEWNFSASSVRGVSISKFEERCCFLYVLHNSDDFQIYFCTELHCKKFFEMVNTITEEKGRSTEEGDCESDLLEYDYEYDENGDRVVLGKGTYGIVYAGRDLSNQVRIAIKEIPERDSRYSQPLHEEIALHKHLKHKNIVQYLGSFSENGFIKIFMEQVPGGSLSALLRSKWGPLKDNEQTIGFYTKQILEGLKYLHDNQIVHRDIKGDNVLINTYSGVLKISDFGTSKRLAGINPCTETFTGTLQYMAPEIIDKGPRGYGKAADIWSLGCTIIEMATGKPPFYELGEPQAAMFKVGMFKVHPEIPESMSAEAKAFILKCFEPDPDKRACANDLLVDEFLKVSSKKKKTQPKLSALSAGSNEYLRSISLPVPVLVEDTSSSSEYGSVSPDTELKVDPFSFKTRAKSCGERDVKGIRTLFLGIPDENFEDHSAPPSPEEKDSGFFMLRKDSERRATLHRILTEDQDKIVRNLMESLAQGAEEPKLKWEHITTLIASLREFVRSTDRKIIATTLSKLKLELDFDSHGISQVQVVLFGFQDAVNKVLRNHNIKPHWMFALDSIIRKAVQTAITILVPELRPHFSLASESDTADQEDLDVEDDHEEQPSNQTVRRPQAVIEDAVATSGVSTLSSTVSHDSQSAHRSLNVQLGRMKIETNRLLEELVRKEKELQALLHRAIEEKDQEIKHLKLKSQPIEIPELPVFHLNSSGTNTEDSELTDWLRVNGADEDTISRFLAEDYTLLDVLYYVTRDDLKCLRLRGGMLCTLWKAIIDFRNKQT

[1] = test system: IRAK4 (human), Q9NWZ3 [A81V]; settings: ATP 200 µM

residual activity (SYK (human); compound 1.0 µM): 49%
residual activity (SYK (human); compound 10.0 µM): 60%
residual activity (PRKX (human); compound 1.0 µM): 48%
residual activity (PRKX (human); compound 10.0 µM): 33%
residual activity (MAPKAPK3 (human); compound 1.0 µM): 117%
residual activity (MAPKAPK3 (human); compound 10.0 µM): 88%
residual activity (PIM3 (human); compound 1.0 µM): 94%
residual activity (PIM3 (human); compound 10.0 µM): 90%
residual activity (GRK7 (human); compound 1.0 µM): 73%
residual activity (GRK7 (human); compound 10.0 µM): 18%
residual activity (MAP2K7 (human); compound 1.0 µM): 52%
residual activity (MAP2K7 (human); compound 10.0 µM): 7%
residual activity (MUSK (human); compound 1.0 µM): 58%
residual activity (MUSK (human); compound 10.0 µM): 5%
residual activity (BRSK1 (human); compound 1.0 µM): 13%
residual activity (BRSK1 (human); compound 10.0 µM): 12%
residual activity (GRK5 (human); compound 1.0 µM): 92%
residual activity (GRK5 (human); compound 10.0 µM): 58%
residual activity (CSNK2A2 (human); compound 1.0 µM): 102%
residual activity (CSNK2A2 (human); compound 10.0 µM): 58%
residual activity (TSSK2 (human); compound 1.0 µM): 95%
residual activity (TSSK2 (human); compound 10.0 µM): 78%
residual activity (EPHA8 (human); compound 1.0 µM): 84%
residual activity (EPHA8 (human); compound 10.0 µM): 43%
residual activity (CDK1 CCNB1 (human); compound 1.0 µM): 35%
residual activity (CDK1 CCNB1 (human); compound 10.0 µM): 19%
residual activity (BMX (human); compound 1.0 µM): 21%
residual activity (BMX (human); compound 10.0 µM): 4%
residual activity (EPHA7 (human); compound 1.0 µM): 70%
residual activity (EPHA7 (human); compound 10.0 µM): 15%
residual activity (NEK11 (human); compound 1.0 µM): 70%
residual activity (NEK11 (human); compound 10.0 µM): 18%
residual activity (MKNK2 (human); compound 1.0 µM): 62%
residual activity (MKNK2 (human); compound 10.0 µM): 18%
residual activity (PLK2 (human); compound 1.0 µM): 97%
residual activity (PLK2 (human); compound 10.0 µM): 82%
residual activity (FRK (human); compound 1.0 µM): 13%
residual activity (FRK (human); compound 10.0 µM): 6%
residual activity (WNK3 (human); compound 1.0 µM): 89%
residual activity (WNK3 (human); compound 10.0 µM): 60%
residual activity (PAK3 (human); compound 1.0 µM): 88%
residual activity (PAK3 (human); compound 10.0 µM): 57%
residual activity (PRKACA (human); compound 1.0 µM): 90%
residual activity (PRKACA (human); compound 10.0 µM): 54%
residual activity (MELK (human); compound 1.0 µM): 15%
residual activity (MELK (human); compound 10.0 µM): 7%
residual activity (SIK1 (human); compound 1.0 µM): 43%
residual activity (SIK1 (human); compound 10.0 µM): 8%
residual activity (MAP3K9 (human); compound 1.0 µM): 6%
residual activity (MAP3K9 (human); compound 10.0 µM): 1%
residual activity (DAPK2 (human); compound 1.0 µM): 73%
residual activity (DAPK2 (human); compound 10.0 µM): 23%
residual activity (SRPK2 (human); compound 1.0 µM): 96%
residual activity (SRPK2 (human); compound 10.0 µM): 67%
residual activity (FLT3 (human); compound 1.0 µM): 1%
residual activity (FLT3 (human); compound 10.0 µM): 0%
residual activity (CDK5 CDK5R1 p25 (human); compound 1.0 µM): 3%
residual activity (CDK5 CDK5R1 p25 (human); compound 10.0 µM): 2%
residual activity (DCLK2 (human); compound 1.0 µM): 119%
residual activity (DCLK2 (human); compound 10.0 µM): 74%
residual activity (MAP2K1 (human); compound 1.0 µM): 64%
residual activity (MAP2K1 (human); compound 10.0 µM): 55%
residual activity (MAP3K5 (human); compound 1.0 µM): 52%
residual activity (MAP3K5 (human); compound 10.0 µM): 7%
residual activity ([1]; compound 1.0 µM): 41%
residual activity ([1]; compound 10.0 µM): 6%
Compound: O=C1Nc2ccccc2/C1=C1\Nc2ccccc2\C1=N/O
